Experiment [1] concerns anaerobic spores, such as C. tyrobutyricum. Briefly: Anaerobic spore count in raw milk under nitrogen gas. The format is cell-based. Particulars: 12.0° C., N1 environment (120 ml/min), Example 5, FIG. 5L. On the procedure: (§1) With the device shown in FIG. 1, the effect of nitrogen gas on the natural microflora in raw milk (volume approximately 125 ml) was examined by replacing the air (control) in an open vessel (volume approximately 250 ml) at a constant temperature, with a flow-through of 100% nitrogen gas (purity 99.999%, manufacturer AGA) at two different flow-through rates: N1=120 ml/min, N2=40 ml/min.
(§2) The temperature of the raw milk in the sample bottles was adjusted by means of the thermostat (14) of the water bath to bring the temperature of the milk to 6.0° C., 7.0° C. or 12.0° C. The temperature variation in the vessel was less than ±0.1° C.
(§3) The effect of nitrogen gas on the growth of the microflora in a raw milk sample at 12.0° C. Two flow-through rates of the nitrogen gas were used in the study: (▴) 40 ml/min and ([…]) 120 ml/min. […] The following bacterial levels were determined in the samples:
(§4) FIG. 5A: Total bacteria count (p.m.y./ml) FIG. 5B: Total number of psychrotrophs (p.m.y./ml) FIG. 5C: Total number of proteolytic bacteria (p.m.y./ml) FIG. 5D: Total number of lipolytic bacteria (p.m.y./ml) FIG. 5E: Total number of bacteria producing phospholipase (p.m.y./ml). […]

Experiment [2] has as its system aerobic spores, such as B. cereus. The experiment is described as follows: Aerobic spore count in raw milk under nitrogen gas. To be noted: 12.0° C., N1 environment (120 ml/min), Example 5, FIG. 5F. The experiment is classed as cell-based. The procedure: as §1, §2, §3, §4
For the next experiment, the system named is haemolytic bacteria. Briefly: Number of haemolytic bacteria in raw milk (blood culture dishes) under nitrogen gas. The experiment is classed as cell-based. To be noted: 12.0° C., following four days of treatment.
Description: It is possible to measure the effectiveness of nitrogen gas for preventing growth of phospholipase for instance as a difference in the number of haemolytic microbes in the foodstuff or foodstuff material, which is an indication of the growth-preventing effect of the nitrogen gas, which effect is directed at the microbes, which produce phospholipase-transmitted virulence factors (see Example 6 below).
as §1
Two flow-through rates of the nitrogen gas were used in the study: (grey) 40 ml/min and (black) 120 ml/min.

Experiment [3] concerns microaerobic/fermentative microbes (such as lactobacilli). Briefly: Growth of lactobacillus-type bacteria in raw milk under nitrogen gas. The experiment is classed as cell-based. To be noted: 12.0° C., N1 environment (120 ml/min), Example 5, FIG. 5G. On the procedure: With the device shown in FIG. 1, the effect of nitrogen gas on the natural microflora in raw milk (volume approximately 125 ml) was examined by replacing the air (control) in an open vessel (volume approximately 250 ml) at a constant temperature, with a flow-through of 100% nitrogen gas (purity 99.999%, manufacturer AGA) at two different flow-through rates: N1=120 ml/min, N2=40 ml/min. The temperature of the raw milk in the sample bottles was adjusted by means of the thermostat (14) of the water bath to bring the temperature of the milk to 6.0° C., 7.0° C. or 12.0° C. The temperature variation in the vessel was less than ±0.1° C. The effect of nitrogen gas on the growth of the microflora in a raw milk sample at 12.0° C. Two flow-through rates of the nitrogen gas were used in the study: (▴) 40 ml/min and ([…]) 120 ml/min. […] The following bacterial levels were determined in the samples: FIG. 5A: Total bacteria count (p.m.y./ml) FIG. 5B: Total number of psychrotrophs (p.m.y./ml) FIG. 5C: Total number of proteolytic bacteria (p.m.y./ml) FIG. 5D: Total number of lipolytic bacteria (p.m.y./ml) FIG. 5E: Total number of bacteria producing phospholipase (p.m.y./ml). […]

The test system of experiment [4] is psychrotrophic bacteria in raw milk and lactic acid bacteria. To be noted: 4° C., closed vessel, Murray et al.; cited from earlier work.

SMILES strings stand for the structures.

Turning to `N#N` [nitrogen gas], the “formation (sporulation) of anaerobic spores” value in experiment [1] is listed as “does not increase the formation (sporulation)”. Besides, the “formation (sporulation) of aerobic spores” value in experiment [2] is recorded as “does not increase the formation (sporulation)”. The “haemolytic microbes in the raw milk” value in the experiment with haemolytic bacteria (N1 environment (120 ml/min)) is “none”. Besides, the “haemolytic microbes, less than in the control environment” value in the experiment with haemolytic bacteria (N2 environment (40 ml/min)) is 2 log-units. Further, the “growth of microaerobic/fermentative microbes (such as lactobacilli)” value in experiment [3] is “able to delay the growth”. In addition, in experiment [4], the “growth of the psychrotrophic bacteria in raw milk and of the lactic acid bacteria” value was “only slightly slowed down the growth”; the “production of the proteolytic exoenzymes by the psychrotrophic bacteria” value was “effectively prevented the production”.

(Values after patent publication US20100159093A1, “METHOD OF TREATING FOODSTUFF” (priority 2008, published 2010).)
